Source: patent US20150217046A1, “DOSING REGIMENS FOR SUBCUTANEOUSLY INFUSIBLE ACIDIC COMPOSITIONS” (SynAgile Corporation, priority 2012, published 2015)

Key:
[1] = Rate of hydrolysis of LD esters in solution; type: physicochemical
Experimental: At a particular temperature and pH, the LDEs formed of LD and of different alcohols are hydrolyzed prior to their infusion at different rates. […] The rate of hydrolysis of LDE salts also depends on the anion, i.e., on the acid forming the LDE salt. LDE is hydrolyzed more rapidly when carboxylate anions and/or carboxylic acids replace the chloride anion or HCl. The rate of hydrolysis of the salt formed of LDEE and acetic acid can be about 3 times faster at about pH 4.5 at about 23° C. than that of LDEE.HCl, the salt formed of LDEE and HCl. The rate of hydrolysis at a particular pH and temperature can therefore depend on the buffering agent, e.g., citric acid and/or citrate anions, becoming faster when their concentration is elevated. Typically, the concentration of the buffering ions, i.e., the combined concentrations of citrates and citric acid, is between about 5 mM and 100 mM, for example between about 10 mM and 50 mM. The rate of hydrolysis can increase, for example, when the buffering citric acid-citrate concentration is increased.
In aqueous LDE salt pharmaceutical compositions, the hydrolysis rates generally decrease as the pH decreases, and the shelf life of the LDE salt consequently increases, unless the pH is about 1.7±0.5 or less. […] In acidic pharmaceutical compositions the amines of the LDEs are protonated, making the LDEs cations. […] The rates of hydrolysis generally increase with temperature, and may at least about double or about triple for each 10° C. increase, correspondingly decreasing upon cooling.

[2] = Infusion site reactions, subcutaneous infusion of 50 mg/mL LDEE pH 3.7 (Example 6); settings: for # of Infusion Site Reactions/# of Infusion Sites: pH 3.7, 50 mg/mL
Experimental: Over the course of two consecutive days, four 6-12 week old juvenile minipigs weighing about 6-13 kg were each administered 18 subcutaneous infusions of LDEE pharmaceutical compositions at pH 3.7 (LDEE.HCl, pH adjusted with trisodium citrate). […] Intermittent and continuously infused doses of 137.5-140 mg (0.61-0.62 millimoles) were administered over 8 hours, and intermittent doses of 275 mg (1.22 millimoles) were administered over 16 hours (calculated mass of LDEE in its freebase form).
Each infusion site was spaced a minimum of 2 inches (5 cm) apart from any other infusion site. All minipigs received seven doses of oral carbidopa, 25 mg/dose: one dose at 12 hours prior to the infusion on the first day; 3 doses on the first day of infusion; and 3 doses on the second day of infusion.

[3] = Swelling/induration and histopathology after continuous subcutaneous infusion (Example 1); type: in vivo, Yucatan minipigs; settings: for microscopic changes at infused site: pH 4.6
From the text: The pharmaceutical compositions were citrate buffered at pH 4.6 where most, but not all, of the LDEE is in the salt form, i.e., there is also some free base.

[4] = Plasma LDEE concentrations after 8 hours of subcutaneous infusion (Example 8); design: species or system minipigs; settings: minipig, in vivo
Experimental: In addition to measuring the LD plasma concentrations as described in Example 6, also the plasma LDEE concentrations were measured.

[5] = Skin symptoms and behavior after subcutaneous LDEE infusion (Example 7); type: in vivo, minipigs

For `CCOC(=O)[C@@H](N)Cc1ccc(O)c(O)c1` [LDEE, levodopa ethyl ester], the “rate of hydrolysis relative to LDME” value ([1]; near pH 7, about 37° C.) was “about four times faster”, the time to hydrolysis ([1]; neutral pH) was “within hours or less” and the “tolerability of infused volume per site” value ([2]; 50 mg/mL LDEE pH 3.7, about 0.34 mL per hour per site) was “well tolerated”. For the same molecule, the “# of Infusion Site Reactions/# of Infusion Sites” value ([2]; 137.5 mg, 8 hrs, Intermittent s.c., 0 hrs) was 0/8, the “# of Infusion Site Reactions/# of Infusion Sites” value ([2]; 137.5 mg, 8 hrs, Intermittent s.c., 12 hrs) was 0/8 and the “# of Infusion Site Reactions/# of Infusion Sites” value ([2]; 137.5 mg, 8 hrs, Intermittent s.c., 24 hrs) was 0/8. The “# of Infusion Site Reactions/# of Infusion Sites” value ([2]; 137.5 mg, 8 hrs, Intermittent s.c., 3 days) was 3/8, the “# of Infusion Site Reactions/# of Infusion Sites” value ([2]; 140 mg, 8 hrs, Continuous s.c., 0 hrs) was 0/4 and the “# of Infusion Site Reactions/# of Infusion Sites” value ([2]; 140 mg, 8 hrs, Continuous s.c., 12 hrs) was 0/4. For the same molecule, the “# of Infusion Site Reactions/# of Infusion Sites” value ([2]; 140 mg, 8 hrs, Continuous s.c., 24 hrs) was 0/4, the “# of Infusion Site Reactions/# of Infusion Sites” value ([2]; 140 mg, 8 hrs, Continuous s.c., 3 days) was 0/4 and the “# of Infusion Site Reactions/# of Infusion Sites” value ([2]; 275 mg, 16 hrs, Intermittent s.c., 0 hrs) was 0/6. For the same molecule, the “# of Infusion Site Reactions/# of Infusion Sites” value ([2]; 275 mg, 16 hrs, Intermittent s.c., 12 hrs) was 0/6, the “# of Infusion Site Reactions/# of Infusion Sites” value ([2]; 275 mg, 16 hrs, Intermittent s.c., 24 hrs) was 1/6 and the “# of Infusion Site Reactions/# of Infusion Sites” value ([2]; 275 mg, 16 hrs, Intermittent s.c., 3 days) was 1/6. The “swelling/induration of infused sites” value ([3]; 1,142 mg LDEE over 16 hours continuous s.c., 326 mg/mL and 220 mg/mL, citrate buffered pH 4.6) was “Most, but not all, of the infused sites were swollen and/or developed firm indurations”, the “microscopic changes at infused site” value ([3]; one month after infusion of 328 mg LDEE/mL (1.45 M)) was “mild to moderate granulomatous inflammation of the panniculus” and the “microscopic changes at infused site” value ([3]; one week after infusion of 220 mg LDEE per mL (0.98 M)) was “mild thrombus formation in the blood vessels of the panniculus, with minimal hemorrhage and subacute inflammation”. The “microscopic changes at infused site” value ([3]; three weeks after infusion of 220 mg LDEE per mL (0.98 M), minipig A) was “minimal hemorrhage of the dermis and panniculus”, the “microscopic changes at infused site” value ([3]; three weeks after infusion of 220 mg LDEE per mL (0.98 M), minipig B) was “mild granulomatous inflammation” and the “Plasma LDEE, 480 minutes after start of infusion” value [4] was 6.9 ng/mL. For the same molecule, the “behavior of the minipigs” value ([5]; LDEE dose rate raising plasma LD above 10,000 ng/mL, even above 15,000 ng/mL) was “did not result in a readily observable change in the behavior of the minipigs” and the “diameter of slightly raised swelling at infused site” value ([5]; minipig D only, 7 days after first infusion and again after end of 8th day reinfusion, 560 mg LDEE 100 mg/mL pH 3.7) was “about 1 cm”.
